Common to all, as to assay type: cell-based
The test system of one assay is AKTpS473. Nature of the assay: Western blot IC40 of downstream effector readout. Particulars: 40% inhibition of AKTpS473, Western Blot. As for the experimental part: (§1) In total, cells were treated with 89 unique perturbations (Table 3). In paired combinations, each drug concentration was selected to inhibit the readout for the presumed target or the downstream effectors by 40% (IC40) as determined by Western Blot experiments. In single agent perturbations, each drug is applied at two different concentrations, IC40 and 2×IC40.
In general terms: A western blot detects proteins with antibodies after separation by electrophoresis.

Another assay deals with GSK3pS21. As to the kind of experiment: Western blot IC40 of downstream effector readout. The settings on record: 40% inhibition of GSK3pS21, Western Blot. As for the experimental part: as §1
The subject of another assay is S6pS240. Nature of the assay: Western blot IC40 of downstream effector readout. The settings on record: 40% inhibition of S6pS240, Western Blot. On the procedure:
as §1

Another assay relates to 4EBP1pS65. Nature of the assay: Western blot IC40 of downstream effector readout. The settings on record: 40% inhibition of 4EBP1pS65, Western Blot. On the procedure: as §1
Assay [1] concerns SkMel133 cells. Nature of the assay: Cell viability, resazurin assay. Particulars: for Emax: read-out: maximal effect level (Amax, response to the drugs at highest doses). As for the experimental part:
RAFi resistant melanoma cell line SkMel133 was used in all perturbation experiments. SkMel133 cells were perturbed with 12 targeted drugs applied as single agents or in paired combinations.
All phenotypic measurements were made in perturbation conditions identical to those in proteomic measurements. Cell viability and cell cycle progression were measured 72 hours after drug treatment using the Resazurin assay and flow cytometry analysis respectively. The percentage of cells in the G1, G2/M, and S phases and sub-G1 fraction were recorded based on the respective distribution of DNA content in each phase.
For orientation: The colour change of resazurin is a common sign of viable cells or microbes.

The test system of the next assay is BRD4. As to the kind of experiment: Western blot of BRD4 level. The settings on record: 24 hours after JQ1 treatment. On the procedure:
FIGS. 6A-6E illustrate the combined targeting of c-Myc with MEK and BRAF leads to synergistic response in melanoma cells. […] The leftward shift of isocurves implies synergistic interactions between the applied perturbations. u denotes strength of in silico perturbations. […] The BRD4 level is unchanged in response to JQ1 treatment. […] C-Myc expression is targeted with BRD4 inhibitor, JQ1. […] Cell viability is measured using the resazurin assay. […] The combination index (CI) calculated using the drug dose response curves quantifies the drug interactions between JQ1, MEKi and RAFi (left panel). CI for a given level of inhibition is a measure of the fractional shift between the combination doses (C1 and C2) and the single agent's inhibitory concentration (Cx,1, Cx,2). It is formulated as CI=(C1/Cx,1)[…](C2/Cx,2). Amax is the response of melanoma cells to JQ1, MEKi and RAFi at highest doses applied (right panel). 1-Amax is the fraction of cells alive in response to highest drug dose normalized with respect to the non-drug treated condition. […] 86% of cells are in G1 state 48 hours after JQ1 treatment, while 42% of the cells are in G1 state before drug treatment (error bars: ±SEM in 3 biological replicates).

Assay [2] deals with SkMel133 cells. As to the kind of experiment: Cell cycle progression, flow cytometry. Particulars: for cells in G1 stage: 24 hours after treatment, 39% when not treated. As for the experimental part:
All phenotypic measurements were made in perturbation conditions identical to those in proteomic measurements. […] The percentage of cells in the G1, G2/M, and S phases and sub-G1 fraction were recorded based on the respective distribution of DNA content in each phase.

Assay [3] relates to c-Myc. As to the kind of experiment: Western blot of c-Myc expression. The settings on record: SkMel133, western blot, 24 hours after drug treatment. The source says: First, it was postulated whether c-Myc levels in SkMel133 cells could be targeted using JQ1. […] Therefore, total c-Myc levels are targeted using JQ1, either as a single agent or in combination with inhibitors of the RAF/MEK/ERK pathway.

The test system of assay [4] is SkMel133 cells. As to the kind of experiment: Apoptotic response of melanoma cells. Particulars: 48 hours after treatment; 3% in unperturbed cells. As for the experimental part: Finally, the cell cycle progression and apoptotic response of melanoma cells to JQ1 were measured. JQ1 (500 nM) induces a 50% increase in cells at G1-phase compared to the unperturbed cells (FIG. 8). […] More specifically, FIG. 8 depicts cell cycle arrest response of melanoma cells to JQ1 and MEKi combination. 51% and 88% of cells are in G1 stage 24 hours after JQ1 and MEKi treatment, respectively. JQ1+MEKi combination has an increased effect on G1 cell cycle arrest (G1=92%). 39% of cells are in G1 when they are not treated with drugs (error bars in right panel: ±SE in 3 biological replicates).

In a further assay the test system is STAT3pY705. As to the kind of experiment: Western blot IC40 of downstream effector readout. The settings on record: 40% inhibition of STAT3pY705, Western Blot. On the procedure: as §1
Assay [5] concerns c-Myc. As to the kind of experiment: c-Myc level by reverse phase protein arrays (RPPA). The settings on record: Skmel133 cells, average of three replicates. On the procedure:
Proteomic response profiles to perturbations were measured using reverse phase protein arrays. The cells were lysed 24 hours after drug treatment. Three biological replicates were spotted for each sample (e.g., drug condition) on RPPA slides. Each slide was stained with the respective Ab and 138 proteomic entities (total or phosho levels) and were profiled using specific Abs with the RPPA (Table 3).
FIG. 14 depicts changes in c-Myc levels in response to perturbations in Skmel133 cells as measured in RPPA experiments. Each data point was log normalized with respect to the c-Myc level in unperturbed condition. c-Myc level was highest in the presence of CDK4i. Various drug combinations that included STAT3 and mTOR inhibitors follow CDK4i combinations. cMyc level was lowest when cells were perturbed with MEK, BRAF, SRC, PKC and HDAC inhibitors, respectively. Each data-point is the average of RPPA readouts from three replicates.

The next assay concerns MAPK1pT202. As to the kind of experiment: Western blot IC40 of downstream effector readout. Particulars: 40% inhibition of MAPK1pT202, Western Blot. On the procedure:
as §1

For the next assay, the system named is P27/Kip1. As to the kind of experiment: Western blot IC40 of downstream effector readout. The settings on record: IC40 on P27/Kip1 readout. As for the experimental part:
as §1

Where [6] appears, read: SkMel133, highest doses applied, normalized to non-drug treated condition.

Where two headings read alike, the source gives them in different places.

`FC(F)c1nc2ccccc2n1-c1nc(N2CCOCC2)nc(N2CCOCC2)n1` [ZSTK474]: the “Dose 1 (IC40 of downstream effector readout)” value in the assay with AKTpS473 is reported as 600 nM.

Take `CC(C)(C)c1nc2c3cc[nH]c(=O)c3c3cc(F)ccc3c2[nH]1` [P6]: the “Dose 1 (IC40 of downstream effector readout)” value with GSK3pS21 came out at 20 nM.

On to `CO[C@H]1C[C@@H]2CC[C@@H](C)[C@@](O)(O2)C(=O)C(=O)N2CCCC[C@H]2C(=O)O[C@H]([C@H](C)C[C@@H]2CC[C@@H](OC(=O)C(C)(CO)CO)[C@H](OC)C2)CC(=O)[C@H](C)/C=C(\C)[C@@H](O)[C@@H](OC)C(=O)[C@H](C)C[C@H](C)/C=C/C=C/C=C/1C` [Temsirolimus], for which the “Dose 1 (IC40 of downstream effector readout)” value with S6pS240 amounted to 0.3 nM.

With `COc1ccc(C2=NC(c3ccc(Cl)cc3)C(c3ccc(Cl)cc3)N2C(=O)N2CCNC(=O)C2)c(OC(C)C)c1` (stereo not shown) [Nutlin], the “Dose 1 (IC40 of downstream effector readout)” value in the assay with 4EBP1pS65 is reported as 3,000 nM.

As for `Cc1sc2c(c1C)C(c1ccc(Cl)cc1)=N[C@@H](CC(=O)OC(C)(C)C)c1nnc(C)n1-2` [JQ1], the IC50 in the assay on SkMel133 cells [1] (SkMel133, combined with 5 nM MEK inhibitor, read-out: concentration of JQ1 reducing viability by 50%) was determined as 100 nM; in the assay on SkMel133 cells [1] (SkMel133, single agent, read-out: cell viability IC50) it was 200 nM. Further, the “maximal effect level (Amax, response to the drugs at highest doses)” value in the assay on SkMel133 cells [1] (setting [6]) came out at 10%. The BRD4 level result in the assay with BRD4 was “unchanged”. Further, in the assay on SkMel133 cells [2], the “cells in G1 stage” value is 51%. In addition, the “cells in G1 state” value with SkMel133 cells [2] (48 hours after treatment, 42% before drug treatment) is reported as 86%. For the same compound, in the assay with SkMel133 cells [2] (JQ1 500 nM), the “increase in cells at G1-phase compared to the unperturbed cells” value stood at 50%. The c-Myc expression entry with c-Myc [3] is given as “reduced”. Moreover, the apoptosis in the assay on SkMel133 cells [4] is 11%.

For the compound `O=[N+]([O-])c1ccc2c(c1)S(=O)(=O)C=C2` [Stattic], in the assay on STAT3pY705, the “Dose 1 (IC40 of downstream effector readout)” value worked out at 600 nM.

As for `O=C(NOC[C@H](O)CO)c1ccc(F)c(F)c1Nc1ccc(I)cc1F` [PD0325901], in the assay on SkMel133 cells [1] (setting [6]), the Emax is 13%. In addition, in the assay with c-Myc [5], the “c-Myc level relative to unperturbed condition” value is given as “lowest”. The “Dose 1 (IC40 of downstream effector readout)” value in the assay on MAPK1pT202 is on record as 1.5 nM. Moreover, the “cells in G1 stage” value with SkMel133 cells [2] came out at 88%.

For `O=c1[nH]c2ccccc2n1C1CCN(Cc2ccc(-c3nc4cc5nc[nH]c5cc4nc3-c3ccccc3)cc2)CC1` [AKTi 1/2], the “Dose 1 (IC40 of downstream effector readout)” value with AKTpS473 was found to be 5.000 nM.

For `O=C(CCCCCCSc1ccc2ccccc2c1)NO` [HNHA], in the assay on c-Myc [5], the “c-Myc level relative to unperturbed condition” value is “lowest”. Further, the “Dose 1 (IC40 of downstream effector readout)” value in the assay with P27/Kip1 was 6,000 nM.

As for `Cn1cc(C2=C(c3cn(CCCN)c4ccccc34)C(=O)NC2=O)c2ccccc21` [RO-31-7549], in the assay on c-Myc [5], the “c-Myc level relative to unperturbed condition” value is recorded as “lowest”. For the same compound, the “Dose 1 (IC40 of downstream effector readout)” value in the assay on S6pS240 came out at 3500 nM.

Take `CCCS(=O)(=O)Nc1ccc(F)c(C(=O)c2c[nH]c3ncc(Cl)cc23)c1F` [PLX4720]: the IC50 was greater than 1000 nM with SkMel133 cells [1] (RAFi resistant SkMel133 cells, single agent, read-out: IC50 for single agent) and 120 nM in the assay on SkMel133 cells [1] (SkMel133, combined with JQ1 (120 nM), read-out: concentration of RAFi reducing cell viability by 50%). In addition, the Emax in the assay on SkMel133 cells [1] (setting [6]) turned out to be 12%. Further, in the assay on c-Myc [5], the “c-Myc level relative to unperturbed condition” value is recorded as “lowest”. For the same compound, the “Dose 1 (IC40 of downstream effector readout)” value with MAPK1pT202 is 60 nM.

For the origin of these results see patent US20150342960A1, “DRUG COMBINATIONS FOR TREATMENT OF MELANOMA AND OTHER CANCERS” (Memorial Sloan Kettering Cancer Center, priority 2014, published 2015).
